# Measurements from article PMC12040169 (PLOS Biology, 2025).
# Assay: in vitro
# Conditions: human, hela cells, % viability
row,SMILES,"viability at 28.5 h, 10 µM [%]"
1,O=c1[nH]c2ncc(-c3ccc4c(c3)OCO4)nc2n1C1CC1 [CBK064922],98.5
2,COCCCn1c(=O)[nH]c2ncc(-c3cccnc3)nc21 [CBK064929],104
3,NS(=O)(=O)c1ccc(Cn2c(=O)[nH]c3ncc(-c4ccco4)nc32)cc1 [CBK064948],96.8
4,CN(C)CCNC(=O)c1ccc(-c2cnc3[nH]c(=O)n(C4CCCC4)c3n2)cc1 [CBK064957],110
5,COc1ccc(C(C)C)cc1-c1cnc2[nH]c(=O)n([C@H](CO)C(C)C)c2n1 [CBK064962],96.2
6,CCCC/C=C/c1cnc2[nH]c(=O)n([C@H](CO)C(C)C)c2n1 [CBK064970],95
7,O=c1[nH]c2ncc(-c3ccncc3)nc2n1C1CCCC1 [CBK064972],116
8,O=c1[nH]c2ncc(-c3ccoc3)nc2n1C1CCOCC1 [CBK064973],119
9,COc1cncc(-c2cnc3[nH]c(=O)n([C@H](CO)C(C)C)c3n2)c1 [CBK064977],107
10,C[C@H](c1ccccc1)n1c(=O)[nH]c2ncc(-c3cccc(/C=C/C(=O)O)c3)nc21 [CBK064983],83.4
11,CC(C)[C@H](CO)n1c(=O)[nH]c2ncc(-c3cccc4ccccc34)nc21 [CBK064985],104
12,CC(C)[C@H](CO)n1c(=O)[nH]c2ncc(-c3cccc(CO)c3)nc21 [CBK065001],96.1
13,COc1ccc(-c2cnc3[nH]c(=O)n([C@H](CO)C(C)C)c3n2)c(OC)c1OC [CBK065008],99.1
14,CC(C)Cn1c(=O)[nH]c2ncc(-c3ccc(O)cc3)nc21 [CBK065011],105
15,COc1ccc(-n2c(=O)[nH]c3ncc(-c4ccco4)nc32)c(C)c1 [CBK065019],101
16,O=c1[nH]c2ncc(-c3cccc(Br)c3)nc2n1Cc1ccccn1 [CBK065020],101
17,CN(C)CCn1c(=O)[nH]c2ncc(-c3cc(C(F)(F)F)cc(C(F)(F)F)c3)nc21 [CBK065028],112
18,O=C(NCCO)c1cccc(-c2cnc3[nH]c(=O)n(Cc4ccccn4)c3n2)c1 [CBK065034],96.5
19,COc1cccc(-c2cnc3[nH]c(=O)n(CCCO)c3n2)c1 [CBK065036],93.3
20,O=C(NC1CCCC1)c1ccc(-c2cnc3[nH]c(=O)n(Cc4ccc(Cl)cc4)c3n2)cc1 [CBK065039],94.7
21,O=C(NCCO)c1ccc(-c2cnc3[nH]c(=O)n(C4CCOCC4)c3n2)cc1 [CBK065041],108
22,COCCCn1c(=O)[nH]c2ncc(-c3cccc(C(=O)NCCO)c3)nc21 [CBK065042],118

row,SMILES,"viability at 28.5 h, 10 µM [%]"
1,CC(C)[C@H](CO)n1c(=O)[nH]c2ncc(-c3cccc(/C=C/C(=O)O)c3)nc21 [CBK065051],92.5
2,CS(=O)(=O)Nc1cccc(-c2cnc3[nH]c(=O)n(Cc4ccc(S(C)(=O)=O)cc4)c3n2)c1 [CBK065061],98.6
3,CN(C)CCNC(=O)c1cccc(-c2cnc3[nH]c(=O)n(Cc4ccc(S(C)(=O)=O)cc4)c3n2)c1 [CBK065069],109
4,O=C(O)/C=C/c1cccc(-c2cnc3[nH]c(=O)n(C4CC4)c3n2)c1 [CBK065091],93.5
5,O=c1[nH]c2ncc(-c3cncc4ccccc34)nc2n1Cc1ccccc1 [CBK065113],99.1
6,COc1ncc(-c2cncc(N3CCN(c4ccc(OC)c(OC)c4)CC3)n2)c(OC)n1 [CBK065169],89.5
7,COc1ccc(C(C)C)cc1-c1cncc(NCCc2c[nH]c3ccccc23)n1 [CBK065174],96.5
8,COc1cc(Nc2cncc(-c3ccc4ccccc4c3)n2)cc(OC)c1OC [CBK065176],61.7
9,c1cncc(-c2cncc(NCCc3c[nH]c4ccccc34)n2)c1 [CBK065186],89.7
10,CC(C)c1ccc(-c2cncc(NCCCN3CCOCC3)n2)cc1 [CBK065196],97.7
11,COc1ccc(C(C)C)cc1-c1cncc(NCC(C)(C)CO)n1 [CBK065206],106
12,COc1ncc(-c2cncc(NCc3cccc(Cl)c3)n2)c(OC)n1 [CBK065211],106
13,COc1cc(-c2cncc(Nc3cccc(C(F)(F)F)c3)n2)cc(OC)c1OC [CBK065213],120
14,CN(C)CCNC(=O)c1cccc(-c2cncc(Nc3cccc(Cl)c3)n2)c1 [CBK065229],104
15,Clc1ccc(Nc2cncc(-c3cccnc3)n2)cc1 [CBK065234],105
16,COc1cc(-c2cncc(NCc3ccco3)n2)cc(OC)c1OC [CBK065259],99.9
17,Nc1cccc(-c2cncc(Nc3ccccc3)n2)c1 [CBK065265],96.2
18,COc1cc(-c2cncc(NCCCO)n2)cc(OC)c1OC [CBK065271],95.5
19,COc1cc(Nc2cncc(-c3cccc(F)c3)n2)cc(OC)c1OC [CBK065272],93
20,CCC(CO)Nc1cncc(-c2cccc(N)c2)n1 (stereo not shown) [CBK065278],103
21,COc1ncc(-c2cncc(Nc3ccccc3)n2)c(OC)n1 [CBK065282],100
22,Clc1cccc(CNc2cncc(-c3cccnc3)n2)c1 [CBK065283],104

row,SMILES,"viability at 28.5 h, 10 µM [%]"
1,COc1ccc(C(C)C)cc1-c1cncc(Nc2ccc(Cl)cc2)n1 [CBK065285],108
2,COc1ncc(-c2cncc(N3CCCN(C)CC3)n2)c(OC)n1 [CBK065286],104
3,CCCC/C=C/c1cncc(NCc2cccc(Cl)c2)n1 [CBK065293],97.3
4,CN1CCCN(c2cncc(-c3ccc(F)c(Cl)c3)n2)CC1 [CBK065297],96.4
5,COc1cc(-c2cncc(N(C)CCN(C)C)n2)cc(OC)c1OC [CBK065312],90.5
6,c1cncc(-c2cncc(NCc3ccc4c(c3)OCO4)n2)c1 [CBK065313],94.6
7,CCNc1cncc(-c2ccc(F)c(Cl)c2)n1 [CBK065322],101
8,Clc1cccc(-c2cncc(NCc3ccc4c(c3)OCO4)n2)c1 [CBK065323],94.8
9,CC(C)[C@H](CO)Nc1cncc(-c2ccccc2CO)n1 [CBK065326],88.6
10,COc1cncc(-c2cncc(N[C@H](CO)C(C)C)n2)c1 [CBK065329],106
11,OCc1ccccc1-c1cncc(N2CCCC2CO)n1 (stereo not shown) [CBK065333],106
12,CCNc1cncc(-c2cc(OC)c(OC)c(OC)c2)n1 [CBK065336],99.1
13,Fc1ccc(-c2cncc(NCc3ccncc3)n2)cc1Cl [CBK065343],94.7
14,CC(C)c1ccc(-c2cncc(NCc3cccc(Cl)c3)n2)cc1 [CBK065347],106
15,CCNc1cncc(-c2cncc(OC)c2)n1 [CBK065366],91.9
16,CCNc1cncc(-c2ccc(OC)cc2)n1 [CBK065370],92.1
17,CCCC/C=C/c1cncc(N(C)CCN(C)C)n1 [CBK065374],91.1
18,CC(C)(CO)CNc1cncc(-c2ccc(O)cc2)n1 [CBK065386],113
19,COc1ccc(CNc2cncc(-c3cncc(OC)c3)n2)cc1 [CBK065388],98.5
20,COc1cc(-c2cncc(N3CCCC3CO)n2)cc(OC)c1OC (stereo not shown) [CBK065389],104
